Test system: 463943-066-T-J2-PDC tumor spheroids with HUVEC/MSC, viability
Test: Anticancer human tumor 463943-066-T-J2-PDC patient-derived colon adenocarcinoma cell line growth inhibition [TAK]
Conditions: for IC50: curve of first compound; for viability, T/C: stronger effect = lower value
Outline: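 Tumor cells were grown as spheroids with HUVEC and hMSC (60:25:15) and treated with targeted agents combined with TAK-243 or ipatasertib. Drugs were tested in half-log steps down from near the clinical Cmax, or from 10 microM where Cmax was unknown.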

[1] = second compound 0.3 µM, first compound 0.0316 µM
[2] = second compound 0.3 µM, first compound 0.1 µM
[3] = second compound 0.3 µM, first compound 0.316 µM
[4] = second compound 0.3 µM, first compound 1 µM
[5] = second compound 0.949 µM, first compound 0.0316 µM
[6] = second compound 0.949 µM, first compound 0.1 µM
[7] = second compound 0.949 µM, first compound 0.316 µM
[8] = second compound 0.949 µM, first compound 1 µM
[9] = second compound 3 µM, first compound 0.0316 µM
[10] = second compound 3 µM, first compound 0.1 µM
[11] = second compound 3 µM, first compound 0.316 µM
[12] = second compound 3 µM, first compound 1 µM
[13] = second compound 9.49 µM, first compound 0.0316 µM
[14] = second compound 9.49 µM, first compound 0.1 µM
[15] = second compound 9.49 µM, first compound 0.316 µM
[16] = second compound 9.49 µM, first compound 1 µM
[17] = second compound 30 µM, first compound 0.0316 µM
[18] = second compound 30 µM, first compound 0.1 µM
[19] = second compound 30 µM, first compound 0.316 µM
[20] = second compound 30 µM, first compound 1 µM
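Note: spheroids exposed to drugs for seven days.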
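Throughout, for viability, T/C: 100% = DMSO vehicle control wells.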

COc1c(OCCCN2CCOCC2)ccc2c3n(c(=NC(=O)c4cnc(N)nc4)nc12)CCN3 + CC(C)NCC(C(=O)N1CCN(c2ncnc3c2C(C)CC3O)CC1)c1ccc(Cl)cc1
IC50 (second compound 0.3 µM): > 1 µM | IC50 (second compound 0.949 µM): > 1 µM | IC50 (second compound 3 µM): > 1 µM | IC50 (second compound 9.49 µM): > 1 µM | IC50 (second compound 30 µM): > 1 µM | viability, T/C (second compound 0.3 µM, first compound 0.00316 µM): 91.4% | viability, T/C (second compound 0.3 µM, first compound 0.01 µM): 91.3% | viability, T/C [1]: 85% | viability, T/C [2]: 77.1% | viability, T/C [3]: 70.3% | viability, T/C [4]: 66.5% | viability, T/C (second compound 0.949 µM, first compound 0.00316 µM): 88.6% | viability, T/C (second compound 0.949 µM, first compound 0.01 µM): 93.1% | viability, T/C [5]: 75.1% | viability, T/C [6]: 78.2% | viability, T/C [7]: 77.2% | viability, T/C [8]: 68.1% | viability, T/C (second compound 3 µM, first compound 0.00316 µM): 93.7% | viability, T/C (second compound 3 µM, first compound 0.01 µM): 86.8% | viability, T/C [9]: 83.5% | viability, T/C [10]: 79.8% | viability, T/C [11]: 79.8% | viability, T/C [12]: 77% | viability, T/C (second compound 9.49 µM, first compound 0.00316 µM): 81.3% | viability, T/C (second compound 9.49 µM, first compound 0.01 µM): 85.5% | viability, T/C [13]: 86.4% | viability, T/C [14]: 73.6% | viability, T/C [15]: 75.6% | viability, T/C [16]: 71.2% | viability, T/C (second compound 30 µM, first compound 0.00316 µM): 85.6% | viability, T/C (second compound 30 µM, first compound 0.01 µM): 87.5% | viability, T/C [17]: 74.6% | viability, T/C [18]: 73.9% | viability, T/C [19]: 66.5% | viability, T/C [20]: 71.2%

Cc1nc(NC(=O)N2CCCC2C(N)=O)sc1-c1ccnc(C(C)(C)C(F)(F)F)c1 (stereo not given) + CC(C)NCC(C(=O)N1CCN(c2ncnc3c2C(C)CC3O)CC1)c1ccc(Cl)cc1
IC50 (second compound 0.3 µM): > 10 µM | IC50 (second compound 0.949 µM): > 10 µM | IC50 (second compound 3 µM): > 10 µM | IC50 (second compound 9.49 µM): > 10 µM | IC50 (second compound 30 µM): > 10 µM | viability, T/C [1]: 106% | viability, T/C [2]: 99.8% | viability, T/C [3]: 105% | viability, T/C [4]: 87.8% | viability, T/C (second compound 0.3 µM, first compound 3.16 µM): 81% | viability, T/C (second compound 0.3 µM, first compound 10 µM): 79.3% | viability, T/C [5]: 104% | viability, T/C [6]: 89.9% | viability, T/C [7]: 91.8% | viability, T/C [8]: 89.2% | viability, T/C (second compound 0.949 µM, first compound 3.16 µM): 78.4% | viability, T/C (second compound 0.949 µM, first compound 10 µM): 78.1% | viability, T/C [9]: 98% | viability, T/C [10]: 100% | viability, T/C [11]: 88.4% | viability, T/C [12]: 88.8% | viability, T/C (second compound 3 µM, first compound 3.16 µM): 81.1% | viability, T/C (second compound 3 µM, first compound 10 µM): 75% | viability, T/C [13]: 89.6% | viability, T/C [14]: 95.3% | viability, T/C [15]: 90.7% | viability, T/C [16]: 86.9% | viability, T/C (second compound 9.49 µM, first compound 3.16 µM): 79.5% | viability, T/C (second compound 9.49 µM, first compound 10 µM): 80.7% | viability, T/C [17]: 92.7% | viability, T/C [18]: 94.4% | viability, T/C [19]: 88.2% | viability, T/C [20]: 92.8% | viability, T/C (second compound 30 µM, first compound 3.16 µM): 90.5% | viability, T/C (second compound 30 µM, first compound 10 µM): 76.6%

— PubChem BioAssay AID2060361 (Molecular Pharmacology Branch, DTP, NCI, 2025)
